Values quoted from earlier work as cited in patent US9617279B1, “Imidazooxadiazole compounds” (BRISTOL-MYERS SQUIBB COMPANY, priority 2014, dated 2017).

Columns and labels:
PAR1 = target: T1, PAR1 (Homo sapiens, UniProt P25116); conditions: ACS patients, phase III
T1 sequence (P25116 22-425): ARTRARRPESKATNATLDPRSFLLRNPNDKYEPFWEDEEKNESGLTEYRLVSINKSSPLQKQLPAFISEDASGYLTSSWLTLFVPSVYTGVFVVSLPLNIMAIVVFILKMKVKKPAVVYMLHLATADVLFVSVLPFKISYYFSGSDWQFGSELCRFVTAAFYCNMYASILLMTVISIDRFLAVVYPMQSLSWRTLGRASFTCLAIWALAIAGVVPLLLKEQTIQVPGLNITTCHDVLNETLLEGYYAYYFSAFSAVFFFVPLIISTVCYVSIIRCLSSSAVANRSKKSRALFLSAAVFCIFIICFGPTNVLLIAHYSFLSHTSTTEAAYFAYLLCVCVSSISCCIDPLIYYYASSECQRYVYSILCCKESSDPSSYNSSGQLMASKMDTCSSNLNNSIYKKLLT

[1] = target: T2, protease-activated receptor type 4 (PAR4) (Homo sapiens, UniProt Q96RI0); conditions: abstract of Lee et al. 2001
T2 sequence (Q96RI0 18-385): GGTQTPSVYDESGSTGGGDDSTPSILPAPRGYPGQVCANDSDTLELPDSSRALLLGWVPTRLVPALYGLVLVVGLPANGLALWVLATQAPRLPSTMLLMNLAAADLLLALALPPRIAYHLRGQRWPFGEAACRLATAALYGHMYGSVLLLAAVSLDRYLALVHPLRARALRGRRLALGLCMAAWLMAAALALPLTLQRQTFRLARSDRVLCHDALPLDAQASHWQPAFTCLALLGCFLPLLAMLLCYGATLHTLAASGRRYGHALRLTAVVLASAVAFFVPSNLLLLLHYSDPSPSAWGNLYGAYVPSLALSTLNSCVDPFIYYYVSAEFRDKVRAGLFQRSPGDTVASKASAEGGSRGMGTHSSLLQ

Compound | cardiovascular events (PAR1) | risk of major bleeding (PAR1) | inhibition of PAR4-dependent platelet activation [1]
CCOC(=O)N[C@@H]1CC[C@@H]2[C@@H](C1)C[C@H]1C(=O)O[C@H](C)[C@H]1[C@H]2/C=C/c1ccc(-c2cccc(F)c2)cn1 [vorapaxar] | did not significantly reduce | significantly increased | 
CCOC(=O)c1ccc(-c2nn(Cc3ccccc3)c3ccccc23)cc1 [ethyl 4-(1-benzyl-1H-indazol-3-yl)benzoate] |  |  | selective and potent inhibitor
